Experimental data published in US10493046B2, “5-hydroxytryptamine 1B receptor-stimulating agent for use as a promoter of satellite cells self-renewal and/or differentiation” (INSTITUT PASTEUR, priority 2015, dated 2019).
Values joined by “and” are separate entries in the source; they are usually repeats but may differ in a detail not shown here. Equal entries are not always repeated.

How the values were obtained:
satellite cells [1] = test: Satellite cells in vitro in plasma of treated mice (live videomicroscopy, immunostaining); assay type: cell-based, mouse; conditions: plasma from fluoxetine-treated mice plus MDL100907
Protocol: (§1) Muscle dissection was done as previously described in cold DMEM. Muscles were then chopped with small scissors and put in a 50 ml Falcon tube with collagenase 0.1% and trypsin 0.25% at 37° C. with gentle agitation. After 20 minutes, the supernatant was collected in 20% serum placed on ice, and the collagenase/trypsin solution was added to continue the digestion. Once muscle was completely digested, the solution was filtrated using 40 μm cell strainers. Satellite cells were cultured in 1:1 DMEM-Glutamax (Gibco#41965-039):MCDB201 (Sigma#M6770) containing 20% serum FBS (Biowest S1860). Medium was filtered using 0.22 μm filters. Cells were plated on Matrigel coating (BD Biosciences#354234) and kept in an incubator (37° C., 5% CO2). […] The thus-obtained supernatant replaced FBS in the culture medium; the rest of the medium was unchanged.
Cells isolated by FACS were plated overnight on a 24-well glass bottom plate (P24G-0-10-F; MatTek) coated with matrigel (BD Biosciences#354234) and placed in an incubator in pre-equilibrated medium (1:1 DMEM Glutamax: MCDB [Sigma-Aldrich], 20% FCS (Biowest S1860). The plate was then incubated at 37° C., 5% CO2 (Zeiss, Pecon). A Zeiss Observer.Z1 connected with a LCI PInN 10×/0.8 W phaseII objective and AxioCam camera piloted with AxioVision was used. Cells were filmed for up to 5 days, and images were taken every 30 min with brightfield and phase filters and MozaiX 3×3 (Zeiss). Raw data were transformed and presented as a video.
Those results were confirmed in vitro (FIG. 7a). […] This difference was lost when SC were plated with GR127935 (p=0.4) (FIG. 7e). The faster exit of quiescence and higher division rates were also lost when adding GR127935 in vitro (FIGS. 7f,g). The effects of the plasma from fluoxetine-treated animals were persistent when adding MDL100907 (FIGS. 7b-g).

satellite cells [2] = test: Satellite cell (SC) number in tibialis anterior of treated mice (histological count or FACS cytometry); assay type: in vivo, mouse; conditions: for Number of satellite cells per TA by cytometry: Tg:Pax7nGFP mice
Protocol: For satellite cell counting, only the tibialis anterior muscle was dissected and digested as described earlier, and the totality of the tube was analysed to assess the number of satellite cells per muscle. FACS analysis was done using a FACSasia (Beckman). All analyses and quantitation were performed using Summit v4.3 software from DakoCytomation and FloJo software. […]
In order to count the number of satellite cells, the tibialis anterior (TA) of Tg:Pax7nGFP mice were digested and analysed by FACS in placebo and vortioxetine (12 days, 20 mg/Kg) treated mice. […] After 3 weeks of vortioxetine treatment, the number of satellite cells was even higher (9351 satellite cells±706, p=0.0079) but no statistically significant differences were found between 12 days and 3 weeks of treatment (p=0.15).

satellite cells [3] = test: FACS-sorted satellite cells in vitro, compound added to the culture medium; assay type: cell-based, mouse; conditions: for Pax7+ (reserve, self-renewing) cells 14 days post-plating / Pax7 positive cells 4 days post-plating / Cells MyoG+ (Myogenin staining): compound added at 10 μM; for Pax7 positive cells 4 days post-plating: 2.000 cells per cm^2; for Cells MyoG+ (Myogenin staining): after 4 days
Protocol: as §1
Satellite cells were isolated from Tg:Pax7nGFP mice and cells were plated at 2.000 cells per cm^2. After overnight, vortioxetine was added at 10 μM. […] 14 days post-plating, a higher number of reserve cells (Pax7 positive cells that are quiescent in vitro) were detected in the vortioxetine-treated cells (9%±0.7) than in the PBS (3.5%±0.9, p=0.01), and when GR127935 inhibitor was added in vitro the number of reserve cells dropped (3.5%±0.9, p=0.9) (FIG. 11c). […] This difference in expression was lost when SC were plated with the GR127935 5-HT1 BR inhibitor (p=0.4) (FIGS. 11c-e). The positive effects of vortioxetine were lost when GR127935 was added in vitro together with vortioxetine (FIGS. 11c-e). These effects were however persistent when adding the 5-HT2 BR antagonist (FIGS. 11c-e). This means that the positive effects observed when plating vortioxetine in vitro with satellite cells is mediated via the 5HT1B receptor and not 5HT2B.
To test whether, 2 derivatives of vortioxetine, namely histidine-vortioxetine and pyrrolidinium-vortioxetine, could have similar or improved effect compared to the unmodified vortioxetine, the in vitro approach as described in section 2.2.3 above was used and the differentiation cascade of satellite cells was investigated by assessing the expression pattern of Pax7 (a marker of stemness and quiescence) and Myogenin (MyoG, a marker of differentiation) as described above in section 2.2.3. To do so, satellite cells from Tg:Pax7-nGFP were isolated by FACS and plated at 2.000 cells per cm^2 (seeded overnight). The following day, the vortioxetine, its derivatives, or the control PBS was added at 10 μM and the cells were fixed at the indicated time points.

satellite cells [4] = test: Satellite cell (SC) number in tibialis anterior of treated mice (histological count or FACS cytometry); assay type: in vivo, mouse
Tibialis anterior = test: Muscle regeneration after notexin injury of tibialis anterior; assay type: in vivo, mouse; conditions: antagonist together with fluoxetine; SC, differentiating cells, fiber size, calcium deposits, fibrosis, Gr1 and F4/80 cells
Protocol: Animals were anesthetized with ketamine (Imalgene1000 100 mg/Kg Merial) and Xylazine (Rompun2% 20 mg/Kg Bayer) prior to injury. Animals were hydrated and treated with analgesic (Buprenorphin Axience 0.3 mg/kg) twice a day for 4 d following injury. For the injury, mice were anesthetized as previously described and 10 μl of 12.5 μg/ml Notexin (Lotaxan) was injected in the Tibialis anterior. All protocols were reviewed by the Institut Pasteur, the competent authority, for compliance with the French and European regulations on Animal Welfare and with Public Health Service recommendations. This project has been reviewed and approved (#2013-0044) by the Institut Pasteur ethic committee (C2EA 89-CETEA).
Tibialis anterior (TA) was carefully dissected and snap frozen in liquid-nitrogen-cooled isopentane for a few minutes and stored at −80° C. prior to cryosectioning (10 μm sections). Sections were kept at room temperature overnight before staining. Sections were then rehydrated in PBS for 10 minutes and fixed in 10% formalin for 3 minutes. The sections were then routinely stained with haematoxylin and eosin (HE) using an automated stain machine or manually with red sirius.
(§2) Immunostaining was performed on cryosections fixed with 4% paraformaldehyde (PFA EMS#15710) in cold PBS, permeabilized with 0.5% Triton X-100 20 min at room temperature, washed, and blocked with 10% BSA for 30 min. Sections were incubated with primary antibodies overnight at 4° C. (see Table 1 below) and with Alexa-conjugated secondary antibodies 1/250 and Hoechst for 45 minutes. Sections were then analysed using an automated axioscan (Zeiss) or inverted Observer.Z1 Apotome (Zeiss). For apoptosis assessment, cells were collected in 2% serum, spun on polyD-lysine (Sigma-Aldrich#P6407), and immediately fixed with PFA 4%.
For image analysis (fibrosis quantification), ImageJ 1.46r software was using between 10 different photos randomly taken per section and 3 sections minimum per experimental group. The pictures were converted in a binary image and the pixel values then collected. For fibre size, the sections were immunostained with rabbit anti Laminin (Sigma-Aldrich #L9393) diluted at 1/200, overnight at 4° C. Secondary Donkey ant Rabbit 488 (DL488 JacksonImmuno #711486152) were used at 1/200 45 minutes at room temperature. The fibre perimeter was done automatically by using Pixcavator® software.

vessels [5] = test: Vessel number in tibialis anterior of treated mice (Flk1GFP/+ or CD31 immunostaining); assay type: in vivo, mouse
Protocol: as §2
Throughout the study, focus was made on the tibialis anterior (TA). In skeletal muscle, SC are central for muscle repair. […] SC are localized close to capillaries and angiogenesis is known to be crucial for muscle repair SC survival with cellular interplays between vessel cells and SC. The number of vessels was therefore quantified. In control Flk1^GFP/+ mouse (placebo), the number of vessels was of 870±213.1 vessels per mm^2 and increased after 3 weeks of I.P treatment (1103±110.2 vessels per mm^2), and even more after 6 weeks (1384±175.3 vessels per mm^2, p=0.008) (FIG. 2e). Neovessels presented with normal histological appearance associating a basal lamina and a permeable lumen sometimes containing red blood cells. […] 841±137 CD31+ cells per mm^2 were counted in the placebo-treated mice vs. 2260±361 CD31+ cells per mm^2 in the fluoxetine-treated mice, p=0.008 (FIG. 2t-v), confirming the previous observation.
In order to investigate the effect of vortioxetine on vessels number, intra peritoneal (I.P) administration of 20 mg/kg of vortioxetine was performed for either 12 days, 3 or 6 weeks to C57Bl/6 mice (FIG. 10a). The number of CD31+ cells was counted by immunostaining. The number of vessels in the placebo is (863.5±115.6 vessels per mm^2) and increases after 12 days of I.P treatment (2274±926 vessels per mm^2, p=0.03), and even more after 3 weeks (2847±705 vessels per mm^2, p=0.02) (FIG. 10b). However, there was no statistically significant differences between 12 days and 3 weeks of treatment (p=0.49). Neovessels display a normal histological appearance associated with a basal lamina and a permeable lumen sometimes containing red blood cells. The daily administration of vortioxetine IP might cause unwanted peritoneal inflammation that could interfere with angiogenesis since inflammation and neovascularization are intertwined in some models. Vortioxetine was therefore administered per os (P.O) for 12 days: a similar increase in the number of vessels was observed (2451±595 vessels per mm^2 p=0.028, FIG. 10c). To further confirm those results, vortioxetine will be administered to Flk1^GFP/+ mice P.O and I.P for 12 days, and an ex vivo Matrigel angiogenesis assay and plasma from vortioxetine treated mice will be used on HUVEC (endothelial cells).

vessels [6] = test: as above; assay type: in vivo, mouse; conditions: vortioxetine I.P 12 days and PBS in osmotic pump

With COc1cccc([C@H](O)C2CCN(CCc3ccc(F)cc3)CC2)c1OC [MDL100907] the “Effects of the plasma from fluoxetine-treated animals when adding MDL100907” value (satellite cells [1]) was “persistent”, the “Inhibition of vortioxetine effects on vessels and SC number by the antagonist” value (satellite cells [2]; MDL100907 together with vortioxetine) was “No inhibition of vortioxetine effects was observed” and the “Effects of vortioxetine when adding the 5-HT2 BR antagonist” value (satellite cells [3]; 5-HT2 BR antagonist together with vortioxetine 10 μM) was “persistent”. The “Inhibition of fluoxetine effects on SC and vessel number by the antagonist” value (satellite cells [4]; antagonist together with fluoxetine treatment) was “no inhibition of fluoxetine effects were observed” and the “Effect of the antagonist on the beneficial effects of fluoxetine after injury” value (Tibialis anterior) was “did not suppress the beneficial effects of fluoxetine”.

For Cc1ccc(Sc2ccccc2N2CCNCC2)c(C)c1 [vortioxetine, 1-[2-(2,4-Dimethylphenylsulfanyl)phenyl]piperazine], the “Number of satellite cells per TA by cytometry” value (satellite cells [2]; vortioxetine 3 weeks) was 9351 satellite cells, the “Number of satellite cells per TA by cytometry” value (satellite cells [2]; vortioxetine 12 days, 20 mg/Kg) was 8660 satellite cells and the “SC number after P.O administration vs I.P” value (satellite cells [2]; vortioxetine P.O at 20 mg/kg) was “a similar increase in SC number”. For the same compound, the “Pax7+ (reserve, self-renewing) cells 14 days post-plating” value (satellite cells [3]) was 9% and 10.5±0.65%, the “Pax7 positive cells 4 days post-plating” value (satellite cells [3]) was 23% and 23.7±2.78% and the “Cells MyoG+ (Myogenin staining)” value (satellite cells [3]) was 34.5±2.5%. The “MyoD (activation marker) expression between conditions” value (satellite cells [3]; vortioxetine 10 μM vs PBS vs GR127935) was “did not differ at any time investigated”, the “Myogenin (MyoG) expression increase” value (satellite cells [3]; vortioxetine 10 μM, 4 days post-plating) was 2 times increase and the “Number of vessels (CD31+)” value (vessels [5]; vortioxetine 20 mg/kg I.P, 3 weeks, C57Bl/6 mice) was 2847±705 vessels per mm^2. For the same compound, the “Number of vessels (CD31+)” value (vessels [5]; vortioxetine 20 mg/kg I.P, 12 days, C57Bl/6 mice) was 2274±926 vessels per mm^2, the “Number of vessels (CD31+)” value (vessels [5]; vortioxetine per os (P.O), 12 days) was 2451±595 vessels per mm^2 and the “SC increase by histological count on TA sections” value (satellite cells [4]; vortioxetine 12 days, 20 mg/Kg) was “two-fold increase”. It also gave a Number of vessels (vessels [6]) of 2274±926 vessels per mm^2.

With CCCOc1ccc2[nH]cc(C3=CCNCC3)c2n1 [5-HT1B agonist] the “Effect of direct addition on differentiation and self-renewal of SC” value (satellite cells [3]; direct addition in the culture media, Pax7+ and Myogenin+ cells) was “triggered the same effect as the addition of plasma from fluoxetine-treated mice”.

For Cc1ccc(Sc2ccccc2N2CC[N+]3(CCCC3)CC2)c(C)c1 [pyrrolidinium-vortioxetine], the “Number of SCs in the TA vs PBS” value (satellite cells [2]; 20 mg/Kg IP for 12 days, TgPax7nGFP mice) was “doubling”, the “Increase in number of self-renewing cells compared with vortioxetine alone” value (satellite cells [3]; 10 μM, 14 days post-plating) was 20% and the “Pax7+ (reserve, self-renewing) cells 14 days post-plating” value (satellite cells [3]) was 12.5±1.9%. The “Pax7 positive cells 4 days post-plating” value (satellite cells [3]) was 25.25±4% and the “Cells MyoG+ (Myogenin staining)” value (satellite cells [3]) was 19.75±0.47%.
